Results reported in patent publication US9682965B2, “Fumagillol heterocyclic compounds and methods of making and using same” (Zafgen, Inc., priority 2015, dated 2017).
Counter-ions that a name gives are not always drawn.

Each compound was assayed on Diet Induced Obese (DIO) C57BL/6 mice (assay: 10 day DIO mouse model (body weight, food intake, hematology, blood chemistry)). Conditions: 240 h; DIO mouse, 0.3 mpk sc, once a day for 10 days; read-out: DIO Mouse 10-day weight loss vs vehicle.
Format: in vivo
Source text: The objective of this study design was to investigate the efficacy of disclosed compounds in a 10 day DIO mouse model. Effects on body weight, food intake, hematology and blood chemistry were the primary readouts of this study design. […] Mice were fed Research Diets D12492 (60% Kcal fat, 20% Kcal carbohydrate and 20% protein) and provided water ad libitum. DIO mice were received and housed in the facility for approximately two weeks prior to the start of test article administration. On Day −4 or −3, mice were randomized into study groups based on body weight and body weights were continued to be recorded daily for the duration of the study. Daily food intake was assessed starting on Study Day −2 by weighing of the food with hopper together to avoid loss of food in transfer.
Compounds were formulated into a 100% DMSO stock (at 9 mg/mL) prior to the start, and further diluted into the target working concentration using the vehicle of 10% DMSO in water. Prior to test article administration, starting on Day −3 a dosing acclimation occured with all animals receiving a subcutaneous injection of vehicle (10% DMSO) only for 3 days. Starting on Day 1, test compounds or vehicle were administered based on individual body weight, subcutaneously, once a day for 10 days. All mice were sacrificed on Day 11, 24 hours following the final dosing on Day 10. After sacrifice, whole blood was collected and analyzed for hematology and blood chemistry parameters.
Compounds were tested vs. vehicle at various doses (1.0, 0.5, 0.3, 0.1, 0.03 mpk sc (mg per kg animal weight delivered subcutaneously), and the results are shown in Table 2 below.
In the case of `CO[C@@H]1[C@H](OC(=O)N2CC(CCN3CCCC3)C2)CC[C@]2(CO2)[C@H]1[C@@]1(C)O[C@@H]1CC=C(C)C` [Example 3, (3R,4S,5S,6R)-5-methoxy-4-((2R,3R)-2-methyl-3-(3-methylbut-2-enyl)oxiran-2-yl)-1-oxaspiro[2.5]octan-6-yl 3-(2-(pyrrolidin-1-yl)ethyl)azetidine-1-carboxylate formate], the inhibition in vivo at 0.3 mg/kg is reported as 5.9%.
In the case of `CO[C@@H]1[C@H](OC(=O)N2CC(CCN3CCS(=O)(=O)CC3)C2)CC[C@]2(CO2)[C@H]1[C@@]1(C)O[C@@H]1CC=C(C)C` [Example 10, (3R,4S,5S,6R)-5-methoxy-4-((2R,3R)-2-methyl-3-(3-methylbut-2-enyl)oxiran-2-yl)-1-oxaspiro[2.5]octan-6-yl 3-(2-thiomorpholinoethyl)azetidine 2,2-dioxide-1-carboxylate], the inhibition in vivo at 0.3 mg/kg is reported as 1.8%.
Work on `CO[C@@H]1[C@H](OC(=O)N2CC(CCN3CCN(C)C(=O)C3)C2)CC[C@]2(CO2)[C@H]1[C@@]1(C)O[C@@H]1CC=C(C)C` [Example 11, (3R,4S,5S,6R)-5-methoxy-4-((2R,3R)-2-methyl-3-(3-methylbut-2-enyl)oxiran-2-yl)-1-oxaspiro[2.5]octan-6-yl 3-(2-(4-methyl-3-oxopiperazin-1-yl)ethyl)azetidine-1-carboxylate formate] yielded an inhibition in vivo at 0.3 mg/kg of 2%.
`CO[C@@H]1[C@H](OC(=O)N2CC(CCN3CCNC(=O)C3)C2)CC[C@]2(CO2)[C@H]1[C@@]1(C)O[C@@H]1CC=C(C)C` [Example 12, (3R,4S,5S,6R)-5-methoxy-4-((2R,3R)-2-methyl-3-(3-methylbut-2-enyl)oxiran-2-yl)-1-oxaspiro[2.5]octan-6-yl 3-(2-(3-oxopiperazin-1-yl)ethyl)azetidine-1-carboxylate] was tested, and the inhibition in vivo at 0.3 mg/kg was 1.1%.
Work on `CO[C@@H]1[C@H](OC(=O)N2CC(CCN3CCC(F)(F)CC3)C2)CC[C@]2(CO2)[C@H]1[C@@]1(C)O[C@@H]1CC=C(C)C` [Example 13, (3R,4S,5S,6R)-5-methoxy-4-((2R,3R)-2-methyl-3-(3-methylbut-2-enyl)oxiran-2-yl)-1-oxaspiro[2.5]octan-6-yl 3-(2-(4,4-difluoropiperidin-1-yl)ethyl)azetidine-1-carboxylate] yielded an inhibition in vivo at 0.3 mg/kg of 18.2%.
Work on `CO[C@@H]1[C@H](OC(=O)N2CC(CCN3CC(C)(C#N)C3)C2)CC[C@]2(CO2)[C@H]1[C@@]1(C)O[C@@H]1CC=C(C)C` [Example 14, (3R,4S,5S,6R)-5-methoxy-4-((2R,3R)-2-methyl-3-(3-methylbut-2-enyl)oxiran-2-yl)-1-oxaspiro[2.5]octan-6-yl 3-(2-(3-cyano-3-methylazetidin-1-yl)ethyl)azetidine-1-carboxylate] yielded an inhibition in vivo at 0.3 mg/kg of 12.5%.
For `CO[C@@H]1[C@H](OC(=O)N2CC(CCN3CCN(S(C)(=O)=O)CC3)C2)CC[C@]2(CO2)[C@H]1[C@@]1(C)O[C@@H]1CC=C(C)C` [Example 15, (3R,4S,5S,6R)-5-methoxy-4-((2R,3R)-2-methyl-3-(3-methylbut-2-enyl)oxiran-2-yl)-1-oxaspiro[2.5]octan-6-yl 3-(2-(4-(methylsulfonyl)piperazin-1-yl)ethyl)azetidine-1-carboxylate], the inhibition in vivo at 0.3 mg/kg was 0.1%.
With `CO[C@@H]1[C@H](OC(=O)N2CC(CCn3ccnc3)C2)CC[C@]2(CO2)[C@H]1[C@@]1(C)O[C@@H]1CC=C(C)C` [Example 18, (3R,4S,5S,6R)-5-methoxy-4-((2R,3R)-2-methyl-3-(3-methylbut-2-enyl)oxiran-2-yl)-1-oxaspiro[2.5]octan-6-yl 3-(2-(1H-imidazol-1-yl)ethyl)azetidine-1-carboxylate] the inhibition in vivo at 0.3 mg/kg was 3%.
Compound `CO[C@@H]1[C@H](OC(=O)N2CC(CCN3CC(C(=O)N(C)C)C3)C2)CC[C@]2(CO2)[C@H]1[C@@]1(C)O[C@@H]1CC=C(C)C` [Example 19, (3R,4S,5S,6R)-5-methoxy-4-((2R,3R)-2-methyl-3-(3-methylbut-2-enyl)oxiran-2-yl)-1-oxaspiro[2.5]octan-6-yl 3-(2-(3-(dimethylcarbamoyl)azetidin-1-yl)ethyl)azetidine-1-carboxylate] has an inhibition in vivo at 0.3 mg/kg of 6.7%.
With `CO[C@@H]1[C@H](OC(=O)N2CC(CCN3CC(C)(C(=O)N(C)C)C3)C2)CC[C@]2(CO2)[C@H]1[C@@]1(C)O[C@@H]1CC=C(C)C` [Example 20, (3R,4S,5S,6R)-5-methoxy-4-((2R,3R)-2-methyl-3-(3-methylbut-2-enyl)oxiran-2-yl)-1-oxaspiro[2.5]octan-6-yl 3-(2-(3-(dimethylcarbamoyl)-3-methylazetidin-1-yl)ethyl)azetidine-1-carboxylate] the inhibition in vivo at 0.3 mg/kg was 2.1%.
`CO[C@H]1CCN(CCC2CN(C(=O)O[C@@H]3CC[C@]4(CO4)[C@@H]([C@@]4(C)O[C@@H]4CC=C(C)C)[C@@H]3OC)C2)C1` [Example 25, (3R,4S,5S,6R)-5-methoxy-4-((2R,3R)-2-methyl-3-(3-methylbut-2-enyl)oxiran-2-yl)-1-oxaspiro[2.5]octan-6-yl 3-(2-((S)-3-methoxypyrrolidin-1-yl)ethyl)azetidine-1-carboxylate] gave an inhibition in vivo at 0.3 mg/kg of 4.8%.
`CO[C@@H]1CCN(CCC2CN(C(=O)O[C@@H]3CC[C@]4(CO4)[C@@H]([C@@]4(C)O[C@@H]4CC=C(C)C)[C@@H]3OC)C2)C1` [Example 26, (3R,4S,5S,6R)-5-methoxy-4-((2R,3R)-2-methyl-3-(3-methylbut-2-enyl)oxiran-2-yl)-1-oxaspiro[2.5]octan-6-yl 3-(2-((R)-3-methoxypyrrolidin-1-yl)ethyl)azetidine-1-carboxylate] was tested, and the inhibition in vivo at 0.3 mg/kg was 4.1%.
Work on `CO[C@@H]1[C@H](OC(=O)N2CC(CCN3CC[C@@H](F)C3)C2)CC[C@]2(CO2)[C@H]1[C@@]1(C)O[C@@H]1CC=C(C)C` [Example 27, (3R,4S,5S,6R)-5-methoxy-4-((2R,3R)-2-methyl-3-(3-methylbut-2-enyl)oxiran-2-yl)-1-oxaspiro[2.5]octan-6-yl 3-(2-((R)-3-fluoropyrrolidin-1-yl)ethyl)azetidine-1-carboxylate] yielded an inhibition in vivo at 0.3 mg/kg of 13.3%.
In the case of `CO[C@@H]1[C@H](OC(=O)N2CC(CCN3CC[C@H](F)C3)C2)CC[C@]2(CO2)[C@H]1[C@@]1(C)O[C@@H]1CC=C(C)C` [Example 28, (3R,4S,5S,6R)-5-methoxy-4-((2R,3R)-2-methyl-3-(3-methylbut-2-enyl)oxiran-2-yl)-1-oxaspiro[2.5]octan-6-yl 3-(2-((S)-3-fluoropyrrolidin-1-yl)ethyl)azetidine-1-carboxylate], the inhibition in vivo at 0.3 mg/kg is reported as 12.7%.
`CO[C@@H]1[C@H](OC(=O)N2CC(CCN3CCC(C)(C#N)CC3)C2)CC[C@]2(CO2)[C@H]1[C@@]1(C)O[C@@H]1CC=C(C)C` [Example 29, (3R,4S,5S,6R)-5-methoxy-4-((2R,3R)-2-methyl-3-(3-methylbut-2-enyl)oxiran-2-yl)-1-oxaspiro[2.5]octan-6-yl 3-(2-(4-cyano-4-methylpiperidin-1-yl)ethyl)azetidine-1-carboxylate] gave an inhibition in vivo at 0.3 mg/kg of 10.7%.
In the case of `CO[C@@H]1[C@H](OC(=O)N2CC(CCN3CCC(F)CC3)C2)CC[C@]2(CO2)[C@H]1[C@@]1(C)O[C@@H]1CC=C(C)C` [Example 30, (3R,4S,5S,6R)-5-methoxy-4-((2R,3R)-2-methyl-3-(3-methylbut-2-enyl)oxiran-2-yl)-1-oxaspiro[2.5]octan-6-yl 3-(2-(4-fluoropiperidin-1-yl)ethyl)azetidine-1-carboxylate], the inhibition in vivo at 0.3 mg/kg is reported as 9.1%.
Work on `CO[C@@H]1[C@H](OC(=O)N2CC(CCN3[C@@H]4CC[C@H]3COC4)C2)CC[C@]2(CO2)[C@H]1[C@@]1(C)O[C@@H]1CC=C(C)C` [Example 31, (3R,4S,5S,6R)-5-methoxy-4-((2R,3R)-2-methyl-3-(3-methylbut-2-enyl)oxiran-2-yl)-1-oxaspiro[2.5]octan-6-yl 3-(2-((1R,5S)-3-oxa-8-azabicyclo[3.2.1]octan-8-yl)ethyl)azetidine-1-carboxylate] yielded an inhibition in vivo at 0.3 mg/kg of 4.2%.
For `CO[C@@H]1[C@H](OC(=O)N2CC(CCN3C4CCC3CC4)C2)CC[C@]2(CO2)[C@H]1[C@@]1(C)O[C@@H]1CC=C(C)C` [Example 32, (3R,4S,5S,6R)-5-methoxy-4-((2R,3R)-2-methyl-3-(3-methylbut-2-enyl)oxiran-2-yl)-1-oxaspiro[2.5]octan-6-yl 3-(2-((1S,4S)-7-azabicyclo[2.2.1]heptan-7-yl)ethyl)azetidine-1-carboxylate], the inhibition in vivo at 0.3 mg/kg was 0.5%.
Compound `CO[C@@H]1[C@H](OC(=O)N2CC(CCN3CCN(CC(F)F)CC3=O)C2)CC[C@]2(CO2)[C@H]1[C@@]1(C)O[C@@H]1CC=C(C)C` [Example 35, (3R,4S,5S,6R)-5-methoxy-4-((2R,3R)-2-methyl-3-(3-methylbut-2-enyl)oxiran-2-yl)-1-oxaspiro[2.5]octan-6-yl 3-(2-(4-(2,2-difluoroethyl)-2-oxopiperazin-1-yl)ethyl)azetidine-1-carboxylate] has an inhibition in vivo at 0.3 mg/kg of 21.3%.
For `CO[C@@H]1[C@H](OC(=O)N2CC(CCN3CCC(C#N)(C#N)CC3)C2)CC[C@]2(CO2)[C@H]1[C@@]1(C)O[C@@H]1CC=C(C)C` [Example 36, (3R,4S,5S,6R)-5-methoxy-4-((2R,3R)-2-methyl-3-(3-methylbut-2-enyl)oxiran-2-yl)-1-oxaspiro[2.5]octan-6-yl 3-(2-(4,4-dicyanopiperidin-1-yl)ethyl)azetidine-1-carboxylate], the inhibition in vivo at 0.3 mg/kg was 11.2%.
